Counter-ions that a name gives are not always drawn.
Key:
[1] = test system: human colon cancer COLO205 cells; test: Growth inhibition of tumor cells cultured in vitro, CellTiter-Glo, COLO205; type: cell-based; settings: COLO205, 72 h, CellTiter-Glo
From the text: (§1) Test drugs: Compounds of the present disclosure. Tumor cell strains: human colon cancer COLO205 cells and human breast cancer MCF-7 cells.
(§2) The growth inhibitory effects on human tumor cells COLO205 and MCF-7 cultured in vitro were observed by using a CellTiter-Glo Luminescent Cell Viability Assay Kit (Promega, Cat. No. G7572). Human tumor cells COLO205 and MCF-7 were both purchased from the American Type Culture Collection.
(§3) CellTiter-Glo Luminescent Cell Viability Assay: The previous cell culture medium was discarded, and the tumor cells were rinsed twice with PBS. An appropriate amount of trypsin (VWR, Cat. No. 0458-25G) was added to digest the tumor cells until most of the cells turned round and were detached from the wall. The trypsin digestion was terminated by adding an RPMI-1640 medium (COLO205; Gibco, Cat. No. A10491-01) containing 10% fetal bovine serum (Hyclone, Cat. No. SV30160.03) and MEM medium (MCF-7; Gibco, Cat. No. 10370-021) containing 10% fetal bovine serum and 0.01 mg/mL insulin, and the cells were gently pipetted with a pipette to completely suspend the tumor cells. After cell counting, a tumor cell suspension was prepared using a complete culture medium and the final concentration was 6.7×10^4 cells/mL. 90 μL of the tumor cell suspension was seeded in each well of a 96-well culture plate (6000 cells/well). The plate was then placed in an incubator with 5% CO2 at 37° C. and incubated for 24 h. A test drug was added by using an Agilent Bravo Automated Liquid Handling Platform, and 10 μL of the sample was added in each well. The assay was conducted in triplicate for each group. A compound of the present disclosure was dissolved in DMSO (BioRoYee, Cat. No. AF0231), and then the resulting solution was diluted to 10 μM/L, 3.33 μM/L, 1.11 μM/L, 0.37 μM/L, 0.123 μM/L, 0.041 μM/L, 0.0137 μM/L, 0.0046 μM/L, and 0.0015 μM/L with the culture medium. The concentration of DMSO was lower than 0.1%, and a culture medium containing 0.1% DMSO was added to the well which was set as a vehicle control group. The 96-well plate was placed in an incubator with 5% CO2 at 37° C. and incubated for 72 h. The 96-well plate to be tested was equilibrated at room temperature for 30 min, and 100 μL of Cell Titer-Glo reagent was added to each well. The contents of each well were mixed in an orbital shaker for 2 min to induce cell lysis, and the plate was incubated at room temperature for 10 min to achieve a constant value of fluorescent intensity. Finally, the chemiluminescence intensity was detected by TECAN M1000. Data were processed with Graphpad Prism 6.0 software. The growth curve of the cells was plotted. The cell growth inhibition rate of a drug was calculated, and the half maximal inhibitory concentration (IC50) of the drug was determined.

CDK4/CyclinD3 = target: T1, CDK4/CyclinD3 (Homo sapiens, UniProt P11802); test: In-vitro kinase inhibitory activity, CDK4/CyclinD3 (Caliper EZ Reader II mobility shift); type: biochemical; settings: CDK4/CyclinD3 20 nM, ATP 2 mM, Peptide 1 μM, 27° C., 180 min; read-out: IC50 (half maximal inhibitory concentration, nM) CDK4
T1 construct: purchased Wuxi Biortus Biosciences Co. Ltd
Method: The final volume for assay was 16 μL, and the reaction temperature was 27° C. CDK4/CyclinD3 was produced by Wuxi Biortus Biosciences Co. Ltd. The concentration of the kinase was determined by the results of the optimization experiment. The kinase was diluted with an assay buffer (50 mM Tris HCl pH 8.0, 0.01% Tween 20, 50 μg/mL BSA, and 5 mM MgCl2) to obtain a corresponding kinase solution (2.4× concentration). The compound was dissolved in dimethyl sulfoxide (DMSO) to reach a concentration of 10 mM. […] 2 μL of the test compound solution was mixed with 5 μL of the kinase solution, and the mixture was incubated for 10 min. 5 μL of the mixed solution of the polypeptide substrate and ATP was then added. The mixture was incubated at 27° C. for 180 min, and then the reaction was terminated by adding 4 μL of EDTA with a concentration of 120 mM to each sample. […] Each assay was conducted in at least two replicates.
(§4) The final concentrations of the reagents in the assay were as follows. […] The reaction mixture was analyzed on a Caliper EZ Reader II by electrophoretic separation of the fluorescent substrate and the phosphorylated product. Data were calculated by using GraphPad Prism version 6.0 and IC50 values were obtained by adjusting the non-linear regression models of the dose response curves.

CDK2 = CDK2 (Homo sapiens, UniProt P24941); test: In-vitro kinase inhibitory activity, CDK2 (selectivity); type: biochemical; settings: read-out: IC50 (half maximal inhibitory concentration, nM) CDK2
[2] = test system: human breast cancer MCF-7 cells; test: Growth inhibition of tumor cells cultured in vitro, CellTiter-Glo, MCF-7; type: cell-based; settings: for IC50: MCF-7, 72 h, CellTiter-Glo
From the text: as §1, §2, §3

CDK9 = CDK9 (Homo sapiens, UniProt P50750); test: In-vitro kinase inhibitory activity, CDK9 (selectivity); type: biochemical; settings: read-out: IC50 (half maximal inhibitory concentration, nM) CDK9
CDK6/CyclinD3 = target: T2, CDK6/CyclinD3 (Homo sapiens, UniProt Q00534); test: In-vitro kinase inhibitory activity, CDK6/CyclinD3 (Caliper EZ Reader II mobility shift); type: biochemical; settings: CDK6/CyclinD3 20 nM, ATP 2 mM, Peptide 1 μM, 27° C., 120 min; read-out: IC50 (half maximal inhibitory concentration, nM) CDK6
T2 construct: purchased Wuxi Biortus Biosciences Co. Ltd
Method: The final volume for assay was 16 μL, and the reaction temperature was 27° C. […] The compound was dissolved in dimethyl sulfoxide (DMSO) to reach a concentration of 10 mM. […] 2 μL of the test compound solution was mixed with 5 μL of the kinase solution, and the mixture was incubated for 10 min. 5 μL of the mixed solution of the polypeptide substrate and ATP was then added. The mixture was incubated at 27° C. for 120 min, and then the reaction was terminated by adding 4 μL of EDTA with a concentration of 120 mM to each sample. […] Each assay was conducted in at least two replicates.
as §4

T2 sequence (Q00534 whole entry, species assumed): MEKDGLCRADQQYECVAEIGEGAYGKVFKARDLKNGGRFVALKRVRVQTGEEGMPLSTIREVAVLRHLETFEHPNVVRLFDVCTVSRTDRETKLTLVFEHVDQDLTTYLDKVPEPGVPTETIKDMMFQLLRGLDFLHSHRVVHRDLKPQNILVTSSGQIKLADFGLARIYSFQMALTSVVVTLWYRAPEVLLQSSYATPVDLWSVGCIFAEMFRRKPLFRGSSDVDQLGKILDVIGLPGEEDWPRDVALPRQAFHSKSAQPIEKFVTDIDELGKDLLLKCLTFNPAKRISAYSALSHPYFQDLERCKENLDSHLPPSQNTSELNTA
T2 sequence (P30281 whole entry partner, species assumed): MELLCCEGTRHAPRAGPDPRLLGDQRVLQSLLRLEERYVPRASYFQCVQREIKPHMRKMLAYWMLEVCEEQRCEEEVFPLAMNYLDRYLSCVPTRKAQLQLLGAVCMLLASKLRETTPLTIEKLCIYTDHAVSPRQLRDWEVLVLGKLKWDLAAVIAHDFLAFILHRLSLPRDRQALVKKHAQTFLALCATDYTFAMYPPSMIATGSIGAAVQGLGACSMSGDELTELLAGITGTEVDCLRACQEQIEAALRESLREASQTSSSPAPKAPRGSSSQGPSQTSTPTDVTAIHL
Chain of CDK9 (P50750 whole entry, species assumed): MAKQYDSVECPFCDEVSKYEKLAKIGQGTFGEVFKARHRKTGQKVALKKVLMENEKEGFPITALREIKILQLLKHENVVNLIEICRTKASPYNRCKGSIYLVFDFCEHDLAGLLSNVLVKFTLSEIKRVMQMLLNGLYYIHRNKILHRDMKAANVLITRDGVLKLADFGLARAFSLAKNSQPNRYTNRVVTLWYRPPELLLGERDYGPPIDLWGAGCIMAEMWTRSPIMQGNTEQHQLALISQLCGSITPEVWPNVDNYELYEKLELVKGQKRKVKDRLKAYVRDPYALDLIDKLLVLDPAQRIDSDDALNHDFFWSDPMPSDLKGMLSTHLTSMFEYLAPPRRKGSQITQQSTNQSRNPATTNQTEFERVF
Chain of CDK9 (O60563 whole entry partner, species assumed): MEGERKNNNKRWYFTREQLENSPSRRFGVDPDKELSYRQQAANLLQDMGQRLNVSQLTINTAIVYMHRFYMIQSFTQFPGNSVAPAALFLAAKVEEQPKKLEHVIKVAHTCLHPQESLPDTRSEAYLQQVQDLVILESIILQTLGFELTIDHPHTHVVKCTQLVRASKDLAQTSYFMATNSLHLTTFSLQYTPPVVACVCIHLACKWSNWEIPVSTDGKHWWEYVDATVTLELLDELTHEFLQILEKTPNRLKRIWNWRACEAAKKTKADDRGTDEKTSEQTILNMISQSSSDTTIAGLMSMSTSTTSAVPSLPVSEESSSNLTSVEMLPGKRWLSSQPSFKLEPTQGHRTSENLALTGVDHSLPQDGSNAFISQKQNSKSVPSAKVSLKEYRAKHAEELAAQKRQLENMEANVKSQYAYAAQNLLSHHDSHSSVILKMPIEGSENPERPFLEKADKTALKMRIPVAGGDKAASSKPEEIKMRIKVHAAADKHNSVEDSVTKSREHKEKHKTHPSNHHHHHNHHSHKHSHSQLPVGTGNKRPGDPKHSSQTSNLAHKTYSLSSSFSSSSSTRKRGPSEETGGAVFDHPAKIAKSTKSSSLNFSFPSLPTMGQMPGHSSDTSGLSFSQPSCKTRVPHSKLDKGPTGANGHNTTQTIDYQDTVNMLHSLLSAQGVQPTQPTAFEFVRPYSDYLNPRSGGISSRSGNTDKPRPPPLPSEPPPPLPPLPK
T1 sequence (P11802 whole entry, species assumed): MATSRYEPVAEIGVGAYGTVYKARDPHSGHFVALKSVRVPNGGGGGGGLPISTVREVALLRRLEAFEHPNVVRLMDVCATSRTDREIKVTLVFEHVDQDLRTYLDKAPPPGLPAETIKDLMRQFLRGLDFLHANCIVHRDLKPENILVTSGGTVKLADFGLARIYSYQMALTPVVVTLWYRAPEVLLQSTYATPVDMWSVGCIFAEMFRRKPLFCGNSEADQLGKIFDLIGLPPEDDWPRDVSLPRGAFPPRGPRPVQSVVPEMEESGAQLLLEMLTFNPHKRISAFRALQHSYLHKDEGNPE
T1 sequence (P30281 whole entry partner, species assumed): as the sequence (P30281 whole entry partner, species assumed) above

IC50 ([1]; Homo sapiens, COLO 205, 72 h) [nM]	IC50 (CDK4/CyclinD3) [nM]	IC50 (CDK2) [nM]	IC50 ([2]; Homo sapiens, MCF7, 72 h) [nM]	IC50 (CDK9) [nM]	IC50 (CDK6/CyclinD3) [nM]	IC50 ([1]; dihydrochloride) [nM]	IC50 [2] [nM]	IC50 [1] [nM]	SMILES	inhibitory effect on human breast cancer MCF-7 cells (in words) ([2]; summary of the table)
247	19.2	> 10000	> 10000	3510	14.2	–	–	–	CC(=O)c1c(C)c2cnc(Nc3ccc(N4CCN(CCN5CCC(OC6CCN(c7ccc8c(c7)CN(C7CCC(=O)NC7=O)C8=O)CC6)CC5)CC4)cn3)nc2n(C2CCCC2)c1=O (stereo not shown) [Compound 9, 3-(5-(4-((1-(2-(4-(6-((6-acetyl-8-cyclopentyl-5-methyl-7-oxo-7,8-dihydropyrido[2,3-d]pyrimidin-2-yl)amino)pyridin-3-yl)piperazin-1-yl)ethyl)piperidin-4-yl)oxy)piperidin-1-yl)-1-oxoisoindolin-2-yl)piperidine-2,6-dione dihydrochloride]	–
–	54.8	–	–	5610	20.5	43.2	> 10000	–	COc1c(N2CCN(CCN3CCN(c4ccc(Nc5ncc6c(C)c(C(C)=O)c(=O)n(C7CCCC7)c6n5)nc4)CC3)CC2)ccc2c1CN(C1CCC(=O)NC1=O)C2=O (stereo not shown) [Compound 19, 3-(5-(4-(2-(4-(6-((6-acetyl-8-cyclopentyl-5-methyl-7-oxo-7,8-dihydropyrido[2,3-d]pyrimidin-2-yl)amino)pyridin-3-yl)piperazin-1-yl)ethyl)piperazin-1-yl)-4-methoxy-1-oxoisoindolin-2-yl)piperidine-2,6-dione dihydrochloride]	–
66.9	60.1	–	> 10000	> 10000	26.4	–	–	–	COc1cc(N2CCN(CCN3CCN(c4ccc(Nc5ncc6c(C)c(C(C)=O)c(=O)n(C7CCCC7)c6n5)nc4)CC3)CC2)cc2c1C(=O)N(C1CCC(=O)NC1=O)C2 (stereo not shown) [Compound 16, 3-(5-(4-(2-(4-(6-((6-acetyl-8-cyclopentyl-5-methyl-7-oxo-7,8-dihydropyrido[2,3-d]pyrimidin-2-yl)amino)pyridin-3-yl)piperazin-1-yl)ethyl)piperazin-1-yl)-7-methoxy-1-oxoisoindolin-2-yl)piperidine-2,6-dione]	–
68.8	17.6	–	442	1560	9.84	–	–	–	CC(=O)c1c(C)c2cnc(Nc3ccc(N4CCN(CCN5CCC(CN6CCN(c7c(F)cc8c(c7F)CN(C7CCC(=O)NC7=O)C8=O)CC6)CC5)CC4)cn3)nc2n(C2CCCC2)c1=O (stereo not shown) [Compound 34, 3-(5-(4-((1-(2-(4-(6-((6-acetyl-8-cyclopentyl-5-methyl-7-oxo-7,8-dihydropyrido[2,3-d]pyrimidin-2-yl)amino)pyridin-3-yl)piperazin-1-yl)ethyl)piperidin-4-yl)methyl)piperazin-1-yl)-4,6-difluoro-1-oxoisoindolin-2-yl)piperidine-2,6-dione trihydrochloride]	–
–	99.5	–	> 10000	> 10000	37.8	–	–	133	COc1c(N2CCN(CCN3CCN(c4ccc(Nc5ncc6c(C)c(C(C)=O)c(=O)n(C7CCCC7)c6n5)nc4)CC3)CC2)ccc2c1CN(C1CCC(=O)NC1=O)C2=O (stereo not shown) [Compound 18, 3-(5-(4-(2-(4-(6-((6-acetyl-8-cyclopentyl-5-methyl-7-oxo-7,8-dihydropyrido[2,3-d]pyrimidin-2-yl)amino)pyridin-3-yl)piperazin-1-yl)ethyl)piperazin-1-yl)-4-methoxy-1-oxoisoindolin-2-yl)piperidine-2,6-dione]	–
–	11.5	> 10000	–	4150	3.21	–	–	–	CC(=O)c1c(C)c2cnc(Nc3ccc(N4CCN(CCN5CCC(CC6CCN(c7ccc8c(c7)CN(C7CCC(=O)NC7=O)C8=O)CC6)CC5)CC4)cn3)nc2n(C2CCCC2)c1=O (stereo not shown) [Compound 10, 3-(5-(4-((1-(2-(4-(6-((6-acetyl-8-cyclopentyl-5-methyl-7-oxo-7,8-dihydropyrido[2,3-d]pyrimidin-2-yl)amino)pyridin-3-yl)piperazin-1-yl)ethyl)piperidin-4-yl)methyl)piperidin-1-yl)-1-oxoisoindolin-2-yl)piperidine-2,6-dione]	–
–	45.4	–	71.6	> 10000	29.6	–	–	–	CC(=O)c1c(C)c2cnc(Nc3ccc(N4CCN(CCN5CCN(c6cc7c(cc6F)C(=O)N(C6CCC(=O)NC6=O)C7)CC5)CC4)cn3)nc2n(C2CCCC2)c1=O.Cl.Cl (stereo not shown) [Compound 27, 3-(5-(4-(2-(4-(6-((6-acetyl-8-cyclopentyl-5-methyl-7-oxo-7,8-dihydropyrido[2,3-d]pyrimidin-2-yl)amino)pyridin-3-yl)piperazin-1-yl)ethyl)piperazin-1-yl)-6-fluoro-1-oxoisoindolin-2-yl)piperidine-2,6-dione dihydrochloride]	relatively good inhibitory effects
–	13	1030	–	688	23.2	–	–	–	Cc1nc2c(F)cc(-c3nc(Nc4ccc(CN5CCN(CCN6CCN(c7ccc8c(c7)CN(C7CCC(=O)NC7=O)C8=O)CC6)CC5)cn4)ncc3F)cc2n1C(C)C (stereo not shown) [Compound 12, 3-(5-(4-(2-(4-((6-((5-fluoro-4-(4-fluoro-1-isopropyl-2-methyl-1H-benzo[d]imidazol-6-yl)pyrimidin-2-yl)amino)pyridin-3-yl)methyl)piperazin-1-yl)ethyl)piperazin-1-yl)-1-oxoisoindolin-2-yl) piperidine-2,6-dione trihydrochloride]	–
–	37.8	–	106	3650	42.1	–	–	–	CN(C)C(=O)c1cc2cnc(Nc3ccc(N4CCN(CCN5CCC(CN6CCN(c7ccc8c(c7)CN([C@H]7CCC(=O)NC7=O)C8=O)CC6)CC5)CC4)cn3)nc2n1C1CCCC1 [Compound 29, (S)-7-cyclopentyl-2-((5-(4-(2-(4-((4-(2-(2,6-dioxopiperidin-3-yl)-1-oxoisoindolin-5-yl)piperazin-1-yl)methyl)piperidin-1-yl)ethyl)piperazin-1-yl)pyridin-2-yl)amino)-N,N-dimethyl-7H-pyrrolo[2,3-d]pyrimidin-6-amide trihydrochloride]	–

— patent US11485735B2, “Selective CDK4/6 inhibitor and preparation thereof” (Wuxi Shuangliang Biotechnology Co., Ltd., priority 2019, dated 2022)
